The record followed here is PMC12040169 (PLOS Biology, 2025).

The term viability denotes a read-out of living cells in per cent, often relative to untreated cells.

A short description of the series: in vitro. The following applies: human, hela cells, % viability.

SMILES strings stand for the structures.

Consider `O=C(c1cccc([N+](=O)[O-])c1)N1CCN(S(=O)(=O)N2CCOCC2)CC1` [CBK267469], for which the viability at 28.5 h, 10 µM amounted to 100%.
On the same count and under the same terms, the same measure for `O=C(Cc1cccc2ccccc12)NC(=S)Nc1cccc(C(=O)O)c1` [CBK267471]: 90.7%; for `Cc1ccc(S(=O)(=O)NC2(C(F)(F)F)NC(=O)N(c3ccc(F)c(Cl)c3)C2=O)cc1` (stereo not drawn) [CBK267473]: 97.2%; for `O=C1NC(c2ccccc2)=NC1(NS(=O)(=O)c1ccccc1)C(F)(F)F` (stereo not drawn) [CBK267474]: 88.3%.
Still for that read-out and setting: to `CC(C)(C)C(=O)NC1(C(F)(F)F)N=C(c2ccccc2)NC1=O` (stereo not drawn) [CBK267475] belongs 88.7%; to `Cc1cccc(NC2(C(F)(F)F)N=C(c3ccccc3)NC2=O)n1` (stereo not drawn) [CBK267476], 92.9%; to `Cc1cc(C)c2c(C)nn(-c3ccc(C(=O)O)cc3)c2n1` [CBK267480], 89.6%.
On the same count and under the same terms, the same measure for `Cc1cc(C)c2c(C(C)(C)C)nn(-c3ccc(C(=O)O)cc3)c2n1` [CBK267481]: 88.4%; for `Cc1ccccc1C(=O)NC1(C(F)(F)F)C(=O)Nc2c1c(=O)[nH]c(=O)n2CCc1ccccc1` (stereo not drawn) [CBK267483]: 86.6%; for `O=C1N2CCSC2=NC1(Nc1nccs1)C(F)(F)F` (stereo not drawn) [CBK267484]: 84.1%.
With `COc1cc(C2NC(=S)NC(c3ccccc3)=C2C(=O)c2ccccc2)cc(I)c1OCCO` (stereo not drawn) [CBK267485], the viability at 28.5 h, 10 µM is 86.7%.
The same measure, in the same setting: to `COC(=O)c1c(NC(=S)NC(=O)c2c(Br)c(C)nn2C)sc2c1CCCCCC2` [CBK267486] belongs 94.5%; to `Cc1cc(O)nc(SCC(=O)Nc2cc([N+](=O)[O-])ccc2C)n1` [CBK267488], 97.9%; to `Cn1c(=O)c2c(nc(NCCO)n2CCc2ccccc2)n(C)c1=O` [CBK267497], 87.8%.
Still for that read-out and setting: to `Cn1c(OCc2cccnc2)nc2c1c(=O)n(Cc1ccc(Cl)c(Cl)c1)c(=O)n2C` [CBK267498] belongs 84.2%.
With `COc1cccc(NC(=O)CN(c2cccc(C(C)=O)c2)S(C)(=O)=O)c1` [CBK267502], the viability at 28.5 h, 10 µM is 111%.
On the same count and under the same terms, to `CC1CCN(CC(CS(=O)(=O)c2ccc([N+](=O)[O-])cc2)N2CCC(C)CC2)CC1` (stereo not drawn) [CBK267506] belongs 86.2%; to `Cc1ccc(SCCNS(=O)(=O)c2cccc([N+](=O)[O-])c2)cc1` [CBK267508], 81.4%.
As for `O=C(Cn1cc(C(=O)c2ccco2)c2ccccc21)NCCc1c[nH]c2ccccc12` [CBK267509], the viability at 28.5 h, 10 µM (bulk resorufin, single well) is 97.9%.
`CCN(CC(=O)NCc1ccc(C)cc1)S(=O)(=O)c1ccc(C)cc1` [CBK267511]: the viability at 28.5 h, 10 µM came out at 110%.
Still for that read-out and setting: to `CS(=O)(=O)N(CC(=O)Nc1ccc(S(N)(=O)=O)cc1)Cc1ccc(Cl)cc1` [CBK267512] belongs 98.8%; to `c1ccc(CCn2c3ccccc3c3nnc(SCc4ccc5nonc5c4)nc32)cc1` [CBK267516], 97.4%.
On the same count and under the same terms, the same measure for `O=C(O)CCc1nn2c3ccccc3n(CC(=O)c3cccs3)c2nc1=O` [CBK267518]: 99.8%; for `O=C(O)CCc1nn2c3ccccc3nc2n(-c2ccccc2)c1=O` [CBK267520]: 90.6%.
On the same count and under the same terms, to `CCOC(=O)c1c(CN2CCCC2)nc2c3ccccc3ccn12` [CBK267521C] belongs 107%.
For the molecule `Nc1cc(N)nc(SCC(=O)Nc2nonc2N)n1` [CBK267522], the viability at 28.5 h, 10 µM was found to be 89.1%.
Still for that read-out and setting: to `CSc1nc(C)cc(OCC(=O)Nc2ccc(Cl)cc2)n1` [CBK267525] belongs 94.8%.
Still for that read-out and setting: to `O=C(CSc1nnc(-c2cccnc2)n1Cc1ccccc1)Nc1ccc(Br)cc1` [CBK267527] belongs 94.5%; to `Cc1ccc(N2CC(C(=O)NCCc3ccc(S(N)(=O)=O)cc3)CC2=O)cc1` (stereo not drawn) [CBK267531], 84.4%.
As for `Cc1c(C(=O)Nc2ccc(S(=O)(=O)N(C)Cc3ccccc3)cc2)cccc1[N+](=O)[O-]` [CBK267534], the viability at 28.5 h, 10 µM turned out to be 109%.
On the same count and under the same terms, the same measure for `Cc1onc(-c2ccccc2Cl)c1C(=O)Nc1ccc(S(=O)(=O)NCC2CCCO2)cc1` (stereo not drawn) [CBK267536]: 88.9%.
On the same count and under the same terms, the same measure for `O=C(Nc1ccc(S(=O)(=O)NCC2CCCO2)cc1)c1cc(-c2ccccc2)nc2ccccc12` (stereo not drawn) [CBK267537]: 84.3%; for `N#Cc1ccc(CSc2nnc(COc3ccccc3)n2Cc2ccco2)cc1` [CBK267539]: 87.9%; for `CN1CCN(CC(=O)N2N=C(c3c(-c4ccccc4)c4cc(Cl)ccc4[nH]c3=O)CC2c2ccccc2)CC1` (stereo not drawn) [CBK267545]: 88.9%.
Same read-out and setting: to `COc1cc(NC(=O)CSc2ncnc3sc4c(c23)CCCC4)cc(OC)c1` [CBK267547] belongs 89.6%.
As to `COc1ccc(CSc2nnc(-c3ccco3)n2N)cc1` [CBK267548], the viability at 28.5 h, 10 µM was determined as 90.3%.
On to `Nn1c(SCC(=O)Nc2ccc3c(c2)OCO3)nnc1-c1ccccn1` [CBK267550], for which the viability at 28.5 h, 10 µM was found to be 101%.
The same measure, in the same setting: the same measure for `Nn1c(SCC(=O)Nc2ccc3c(c2)OCCO3)nnc1-c1ccccn1` [CBK267551]: 87.4%; for `O=C(CSc1nnc(-c2ccco2)n1Cc1ccco1)c1ccc(-c2ccccc2)cc1` [CBK267555]: 91.1%; for `Fc1ccccc1CSc1nnc(-c2cnccn2)n1Cc1ccco1` [CBK267556]: 96.4%.
For the molecule `NC(=O)CC1Nc2cccc3cccc(c23)NC1=O` (stereo not drawn) [CBK267560], the viability at 28.5 h, 10 µM is 75%.
On the same count and under the same terms, to `COC(=O)c1c(NC(=O)CC2Nc3cccc4cccc(c34)NC2=O)sc(C)c1C` (stereo not drawn) [CBK267562] belongs 68.3%.
For `CCc1cc(C(=O)OC)c(NC(=O)CC2Nc3cccc4cccc(c34)NC2=O)s1` (stereo not drawn) [CBK267563], the viability at 28.5 h, 10 µM was 59.8%.
Same read-out and setting: the same measure for `COc1cc(OC)c(S(=O)(=O)N2CCOCC2)cc1S(=O)(=O)N1CCOCC1` [CBK267564]: 98.1%.
Same read-out and setting: to `Cn1c(=O)n(C)c2cc(S(=O)(=O)ON3C(=O)c4cccc5cc([N+](=O)[O-])cc(c45)C3=O)ccc21` [CBK267566] belongs 91.6%.
The same measure, in the same setting: the same measure for `Cn1c(=O)oc2cc(S(=O)(=O)NCCC(=O)O)ccc21` [CBK267567]: 89.3%; for `Cn1c(=O)oc2cc(S(=O)(=O)NCc3ccccc3)ccc21` [CBK267568]: 90.8%; for `Cc1ccc2cc(S(=O)(=O)NCCC(=O)O)ccc2c1` [CBK267569]: 96.5%.
Regarding `CC(=O)Nc1ccc(S(=O)(=O)N(C)CC(=O)O)cc1` [CBK267570], the viability at 28.5 h, 10 µM worked out at 97.8%.
Same read-out and setting: to `COc1ccc(S(=O)(=O)N2CCC(C(=O)O)(c3ccccc3)CC2)cc1` [CBK267572] belongs 94.3%.
For the molecule `CC1(C)CC(=O)c2c(O)cc(OCC(=O)c3ccc(Cl)c(Cl)c3)cc2O1` [CBK267573], the viability at 28.5 h, 10 µM is 89.1%.
Turning to `O=C(CSc1nnc(SCc2cccc3ccccc23)s1)Nc1ccccc1C(F)(F)F` [CBK267575], the viability at 28.5 h, 10 µM amounted to 103%.
Still for that read-out and setting: to `NS(=O)(=O)c1ccc(NC(=O)CSc2nc3sc4c(c3c(=O)n2-c2ccc(Cl)cc2)CCCC4)cc1` [CBK267577] belongs 91.9%; to `Cc1ccc(N(Cc2ccco2)C(=O)c2cccc(S(=O)(=O)N(C)C)c2)cc1` [CBK267578], 91.6%; to `CN(C)S(=O)(=O)c1cccc(C(=O)N(Cc2ccc(F)cc2)Cc2ccco2)c1` [CBK267579], 88.8%.
Turning to `CN(C)S(=O)(=O)c1cccc(-c2cn3cccnc3n2)c1` [CBK267580], the viability at 28.5 h, 10 µM is 71.4%.
Same read-out and setting: the same measure for `COc1cc(C2c3c(oc4ccc(Cl)cc4c3=O)C(=O)N2CC2CCCO2)ccc1OCc1ccccc1` (stereo not drawn) [CBK267581]: 89.5%.
Still for that read-out and setting: the same measure for `CC(C)OC(=O)CSc1nnc(-c2cnccn2)n1Cc1ccco1` [CBK267586]: 117%; for `C(=C\c1ccccc1)/CSc1nnc(-c2cnccn2)n1Cc1ccco1` [CBK267587]: 119%; for `O=C(CSc1nnc(Cc2cccs2)n1-c1ccccc1)Nc1ccc(F)c(Cl)c1` [CBK267589]: 92.3%.
On the same count and under the same terms, to `Cc1ccc(-c2csc3ncnc(SCc4nc5ccccc5[nH]4)c23)cc1` [CBK267590] belongs 83.5%.
On to `O=C(CSc1nnc(-c2ccc(F)cc2)n1-c1ccccc1)Nc1cccc2ccccc12` [CBK267592], for which the viability at 28.5 h, 10 µM is 89.8%.
The same measure, in the same setting: to `COc1ccc(NC(=S)NC(=O)CN2C(=O)c3ccccc3C2=O)c([N+](=O)[O-])c1` [CBK267594] belongs 114%.
Turning to `Cc1cc(NS(=O)(=O)c2ccc(NC(=O)c3cc4ccccc4o3)cc2)no1` [CBK267597], the viability at 28.5 h, 10 µM amounted to 88%.
Same read-out and setting: the same measure for `COc1ccc(S(=O)(=O)NCCc2ccc(S(N)(=O)=O)cc2)cc1[N+](=O)[O-]` [CBK267598]: 94.1%.
Same read-out and setting: the same measure for `O=C1NC(=O)c2cc(S(=O)(=O)NCCCO)cc3cccc1c23` [CBK267602]: 110%; for `COc1ccc(OC)c(NS(=O)(=O)c2ccc(C(=O)O)cc2)c1` [CBK267603]: 106%.
The same measure, in the same setting: the same measure for `CS(=O)(=O)N1CCN(c2ccccc2NC(=O)c2cccnc2)CC1` [CBK267604]: 119%.
With `CS(=O)(=O)N1CCN(c2ccccc2NC(=O)CSc2ccc(Cl)cc2)CC1` [CBK267607], the viability at 28.5 h, 10 µM was found to be 83.7%.
For `O=C(NC(=S)Nc1cccc2ncccc12)c1ccc(N2CCOCC2)c([N+](=O)[O-])c1` [CBK267608], the viability at 28.5 h, 10 µM was determined as 87.8%.
Turning to `COc1ccc2oc(-c3ccc(NC(=O)c4cccc5ccccc45)cc3)nc2c1` [CBK267610], the viability at 28.5 h, 10 µM is 110%.
The same measure, in the same setting: the same measure for `Cc1ccc2[nH]c(/C(C#N)=C\c3cn(CC(=O)Nc4ccccc4)c4ccccc34)nc2c1` [CBK267612]: 105%.
As to `C=CCOc1ccc2ccccc2c1CNc1nn[nH]n1` [CBK267619], the viability at 28.5 h, 10 µM was 92.8%.
On the same count and under the same terms, to `COc1cc(CNCc2cccs2)ccc1OCC(N)=O` [CBK267620C] belongs 95.7%.
Same read-out and setting: to `COc1ccc(C(=O)Nc2ccc(S(=O)(=O)N3CCN(C)CC3)cc2)cc1` [CBK267622] belongs 92.8%.
